Experimental data from ChEMBL document CHEMBL4002585, “Novel CLK1 inhibitors based on N-aryloxazol-2-amine skeleton - A possible way to dual VEGFR2 TK/CLK ligands” (Eur J Med Chem, 2017).
pIC50: −log10 of the molar value. One block for each molecule: values may come before it.

What was measured:
[1] = Inhibition of Leishmania major strain Friedlin N-terminal His6-tagged GSK3 expressed in Escherichia coli BL21(DE3) using Biotin-labeled GSP-2 peptide substrate after 90 mins in presence of [gamma33-P]ATP by scintillation proximity assay
[2] = Inhibition of Leishmania major strain Friedlin fusion protein GSK3 using Biotin-labeled GSP-2 peptide substrate after 90 mins in presence of [gamma33-P]ATP by scintillation proximity assay
[3] = Inhibition of Trypanosoma brucei GSK3 using Biotin-labeled GSP-2 peptide substrate after 90 mins in presence of [gamma33-P]ATP by scintillation proximity assay
[4] = molecular target: T1, Dual specificity protein kinase CLK1 (Homo sapiens, UniProt P49759); test: Inhibition of human CLK1 (148 to 484 residues) expressed in Escherichia coli BL21(DE3) preincubated for 10 mins followed by AFRREWSPGKEAKK substrate addition by pyruvate kinase and lactate dehydrogenase coupled enzyme assay
[5] = Inhibition of Leishmania infantum MHOM/BR/82/BA-2 N-terminal His6-tagged GSK3 expressed in Escherichia coli BL21(DE3) using Biotin-labeled GSP-2 peptide substrate after 90 mins in presence of [gamma33-P]ATP by scintillation proximity assay
[6] = Inhibition of Leishmania major strain Friedlin endogenous GSK3 using Biotin-labeled GSP-2 peptide substrate after 90 mins in presence of [gamma33-P]ATP by scintillation proximity assay
[7] = Inhibition of GSK3 (unknown origin) using substrate after 30 mins in presence of [gamma-33P]ATP by liquid scintillation counting; design: species or system Homo sapiens
[8] = molecular target: Glycogen synthase kinase-3 (Homo sapiens, UniProt P49840+P49841); test: Inhibition of GSK3 alpha/beta (unknown origin) using substrate after 30 mins in presence of [gamma-33P]ATP by liquid scintillation counting; format: protein assay
[9] = molecular target: Dual specificity tyrosine-phosphorylation-regulated kinase 1A (Homo sapiens, UniProt Q13627); test: Inhibition of DYRK1A (unknown origin) using substrate after 30 mins in presence of [gamma-33P]ATP by liquid scintillation counting
[10] = molecular target: T1, Dual specificity protein kinase CLK1; test: Inhibition of human CLK1 using substrate after 30 mins in presence of [gamma-33P]ATP by liquid scintillation counting
CDK9/cyclin T1 = CDK9/cyclin T1 (Homo sapiens, UniProt P50750); test: Inhibition of CDK9/CyclinT (unknown origin) using substrate after 30 mins in presence of [gamma-33P]ATP by liquid scintillation counting; format: protein-complex assay
[11] = molecular target: Vascular endothelial growth factor receptor 2 (Homo sapiens, UniProt P35968); test: Inhibition of VEGFR2 (unknown origin) using substrate after 30 mins in presence of [gamma-33P]ATP by liquid scintillation counting
Sequence of Vascular endothelial growth factor receptor 2 (P35968 whole entry): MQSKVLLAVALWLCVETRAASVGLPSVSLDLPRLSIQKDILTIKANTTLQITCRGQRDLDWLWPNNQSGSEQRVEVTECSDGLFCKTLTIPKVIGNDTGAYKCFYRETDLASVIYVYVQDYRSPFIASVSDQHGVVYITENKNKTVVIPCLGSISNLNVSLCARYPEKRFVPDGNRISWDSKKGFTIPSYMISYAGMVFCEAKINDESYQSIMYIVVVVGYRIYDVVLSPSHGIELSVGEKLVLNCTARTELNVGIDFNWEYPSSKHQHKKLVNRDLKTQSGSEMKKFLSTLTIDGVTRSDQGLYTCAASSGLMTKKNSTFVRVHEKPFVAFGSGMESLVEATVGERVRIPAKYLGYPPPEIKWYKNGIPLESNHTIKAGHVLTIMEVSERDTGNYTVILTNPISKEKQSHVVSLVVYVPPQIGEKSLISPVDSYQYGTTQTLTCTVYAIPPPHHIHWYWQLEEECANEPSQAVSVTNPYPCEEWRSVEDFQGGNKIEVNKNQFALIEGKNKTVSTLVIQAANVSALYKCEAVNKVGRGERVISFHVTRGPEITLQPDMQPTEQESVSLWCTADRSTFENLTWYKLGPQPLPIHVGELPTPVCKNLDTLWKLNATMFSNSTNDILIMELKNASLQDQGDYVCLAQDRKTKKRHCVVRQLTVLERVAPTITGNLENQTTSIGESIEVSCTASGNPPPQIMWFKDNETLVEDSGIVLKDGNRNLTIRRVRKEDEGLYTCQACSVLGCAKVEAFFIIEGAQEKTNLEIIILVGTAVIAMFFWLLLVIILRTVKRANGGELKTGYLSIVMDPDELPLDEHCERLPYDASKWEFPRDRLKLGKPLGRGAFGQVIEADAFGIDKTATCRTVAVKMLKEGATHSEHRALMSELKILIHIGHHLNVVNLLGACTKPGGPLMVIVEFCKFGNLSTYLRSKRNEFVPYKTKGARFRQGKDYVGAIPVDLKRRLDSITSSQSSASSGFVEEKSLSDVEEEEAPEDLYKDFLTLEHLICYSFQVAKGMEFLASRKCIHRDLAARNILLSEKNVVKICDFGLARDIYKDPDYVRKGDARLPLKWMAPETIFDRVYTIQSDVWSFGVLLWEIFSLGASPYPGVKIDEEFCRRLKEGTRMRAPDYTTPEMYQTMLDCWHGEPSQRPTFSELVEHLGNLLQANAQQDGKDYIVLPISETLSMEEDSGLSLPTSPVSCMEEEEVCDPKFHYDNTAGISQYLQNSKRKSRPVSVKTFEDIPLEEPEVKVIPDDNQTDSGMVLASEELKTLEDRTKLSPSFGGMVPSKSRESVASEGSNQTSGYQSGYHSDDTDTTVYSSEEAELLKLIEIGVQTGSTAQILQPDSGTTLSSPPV

T1 sequence (P49759 whole entry, the tested form may be a part): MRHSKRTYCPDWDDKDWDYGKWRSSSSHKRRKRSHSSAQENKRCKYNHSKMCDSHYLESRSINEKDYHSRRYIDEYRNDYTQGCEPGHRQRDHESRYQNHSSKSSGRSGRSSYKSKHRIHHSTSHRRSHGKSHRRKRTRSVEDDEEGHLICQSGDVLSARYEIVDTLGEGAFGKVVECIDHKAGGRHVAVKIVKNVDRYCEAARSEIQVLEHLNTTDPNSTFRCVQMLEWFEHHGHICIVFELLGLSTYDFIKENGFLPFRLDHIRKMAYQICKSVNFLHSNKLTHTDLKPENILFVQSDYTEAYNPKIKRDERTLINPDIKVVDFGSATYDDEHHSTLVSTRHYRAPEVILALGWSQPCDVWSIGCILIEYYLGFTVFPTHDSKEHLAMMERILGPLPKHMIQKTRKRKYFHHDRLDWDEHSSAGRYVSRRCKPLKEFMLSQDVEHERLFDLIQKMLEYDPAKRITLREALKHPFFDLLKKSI
Sequence of CDK9/cyclin T1 (O60563 whole entry): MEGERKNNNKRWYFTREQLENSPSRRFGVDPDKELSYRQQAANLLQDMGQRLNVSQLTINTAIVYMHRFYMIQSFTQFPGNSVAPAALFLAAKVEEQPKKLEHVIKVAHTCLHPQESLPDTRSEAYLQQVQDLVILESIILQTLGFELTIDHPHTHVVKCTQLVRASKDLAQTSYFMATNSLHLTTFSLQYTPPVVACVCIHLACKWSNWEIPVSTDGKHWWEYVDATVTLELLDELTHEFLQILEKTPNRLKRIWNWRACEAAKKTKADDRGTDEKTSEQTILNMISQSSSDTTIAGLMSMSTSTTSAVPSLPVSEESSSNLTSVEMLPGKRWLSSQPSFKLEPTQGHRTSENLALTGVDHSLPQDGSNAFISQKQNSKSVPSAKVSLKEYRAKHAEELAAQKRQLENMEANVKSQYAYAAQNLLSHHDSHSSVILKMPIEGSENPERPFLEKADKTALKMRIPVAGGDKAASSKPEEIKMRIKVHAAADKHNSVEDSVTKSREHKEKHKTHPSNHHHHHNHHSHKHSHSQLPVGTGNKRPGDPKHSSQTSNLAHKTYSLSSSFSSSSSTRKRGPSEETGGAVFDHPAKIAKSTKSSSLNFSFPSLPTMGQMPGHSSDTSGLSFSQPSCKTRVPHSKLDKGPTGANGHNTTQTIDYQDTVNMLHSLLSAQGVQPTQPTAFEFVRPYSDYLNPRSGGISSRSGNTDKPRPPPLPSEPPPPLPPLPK
Sequence of CDK9/cyclin T1 (P50750 whole entry): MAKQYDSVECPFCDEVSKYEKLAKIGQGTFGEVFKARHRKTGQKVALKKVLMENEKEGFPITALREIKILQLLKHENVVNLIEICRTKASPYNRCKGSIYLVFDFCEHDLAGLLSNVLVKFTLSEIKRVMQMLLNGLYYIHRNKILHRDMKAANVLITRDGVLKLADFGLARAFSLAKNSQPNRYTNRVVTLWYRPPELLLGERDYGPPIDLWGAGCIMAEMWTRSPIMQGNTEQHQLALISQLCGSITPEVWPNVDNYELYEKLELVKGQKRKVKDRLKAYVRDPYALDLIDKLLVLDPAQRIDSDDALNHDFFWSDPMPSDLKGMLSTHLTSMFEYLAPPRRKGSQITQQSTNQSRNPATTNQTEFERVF

pIC50 [1]: 6.49
pIC50 [2]: 6.82
pIC50 [4]: 8.05
pIC50 [5]: 6.59
pIC50 [6]: 6.74
Compound: Nc1nc(Nc2ccc(S(N)(=O)=O)cc2)nn1C(=S)Nc1c(F)cccc1F
pIC50 [3]: 6.92

pIC50 [7]: 5.40
IC50 [8]: 7.5 µM
pIC50 [9]: 5.15
pIC50 [10]: 7.40
pIC50 (CDK9/cyclin T1): 6.70
Compound: CCS(=O)(=O)c1ccc(OC)c(Nc2ncc(/C=C/c3ccccc3)o2)c1

pIC50 [9]: 6.30
pIC50 [10]: 7.52
Compound: CCS(=O)(=O)c1ccc(OC)c(Nc2ncc(-c3cc4ccccc4s3)o2)c1

pIC50 [11]: 7.64
pIC50 [10]: 7.10
Compound: CCS(=O)(=O)c1ccc(OC)c(Nc2ncc(-c3ccc(CC#N)c(-c4ccccn4)c3)o2)c1

pIC50 [9]: 6.00
pIC50 [10]: 7.70
Compound: CCS(=O)(=O)c1ccc(OC)c(Nc2ncc(-c3ccc4cc(OC)ccc4c3)o2)c1
